Laboratory results reported in patent US6420172B1, “Method for inducing tumor immunity” (TIB Company, LLC, priority 1992, dated 2002).

Columns and labels:
[1] = system: tumor cells; details: literature reports; cited from earlier work
[2] = system: transfected C6 cells; test: 3H-thymidine incorporation into transfected C6 cells in serum-free medium; assay type: cell-based, rat; details: 48 hours, 50 μg/ml
From the text: The mechanism underlying the loss of tumorigenicity for the antisense IGF-1 transfectants is linked to enhanced immunogenicity. Applicant notes a striking infiltration of mononuclear cells surrounding the injected C6 transfected cells in vivo. No such infiltrates ere apparent for the parental (IGF-I positive) cells in he tumors formed in vivo. […] This possibility is substantiated by the examples provided below. This immunological component may exist together with an antiproliferative effect. C6 cellular proliferation is likely to involve factors in addition to IGF-1, however, since the rate of incorporation of ^3H-thymidine into transfected C6 cells cultured for 48 hours in serum-free medium was unaffected by the presence of ZnSO^4 or IGF-I protein (50 μg/ml) in the culture medium (data not shown).

Molecule: C[C@@H](O)[C@@H]1NC(=O)[C@H](CCCCN)NC(=O)[C@@H](Cc2c[nH]c3ccccc23)NC(=O)[C@H](Cc2ccccc2)NC(=O)[C@@H](NC(=O)[C@H](N)Cc2ccccc2)CSSC[C@@H](C(=O)N[C@H](CO)[C@@H](C)O)NC1=O [octreotide]
- tumor development in vivo [1]: not blocked

Molecule: IGF-I protein: Insulin-like growth factor I protein added to the culture medium
- rate of incorporation of 3H-thymidine in the presence of IGF-I protein [2]: unaffected
